The values below come from ChEMBL document CHEMBL1132512, “Substituted heterocyclic analogs as selective COX-2 inhibitors in the flosulide class” (Bioorg Med Chem Lett, 1999).

Assay [1] has as its target T1, Prostaglandin G/H synthase 2 (Homo sapiens, UniProt P35354).
T1 sequence (P35354 whole entry): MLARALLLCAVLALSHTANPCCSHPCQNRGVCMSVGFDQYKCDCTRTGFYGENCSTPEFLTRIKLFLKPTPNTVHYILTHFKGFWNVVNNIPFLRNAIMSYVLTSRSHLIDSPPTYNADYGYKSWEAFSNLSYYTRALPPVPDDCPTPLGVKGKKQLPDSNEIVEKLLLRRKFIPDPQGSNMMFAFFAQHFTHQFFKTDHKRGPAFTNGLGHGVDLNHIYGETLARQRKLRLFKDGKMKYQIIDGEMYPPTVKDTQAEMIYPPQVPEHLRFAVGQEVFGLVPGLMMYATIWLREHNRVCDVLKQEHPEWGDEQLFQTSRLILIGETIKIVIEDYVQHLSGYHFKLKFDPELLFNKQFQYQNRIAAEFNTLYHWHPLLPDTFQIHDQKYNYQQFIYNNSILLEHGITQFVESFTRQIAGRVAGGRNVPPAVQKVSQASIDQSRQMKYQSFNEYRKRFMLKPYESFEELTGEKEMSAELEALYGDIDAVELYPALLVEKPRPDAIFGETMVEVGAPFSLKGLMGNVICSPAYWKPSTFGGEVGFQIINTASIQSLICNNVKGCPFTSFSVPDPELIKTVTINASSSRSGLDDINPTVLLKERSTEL
Kind of assay: Inhibition of purified recombinant human Prostaglandin G/H synthase 2.

Assay [2] concerns the target T1, Prostaglandin G/H synthase 2. Put plainly: Inhibition of human Prostaglandin G/H synthase 2 expressed in CHO (chinese hamster ovary) cells. The assay is classed as cell-based.
Assay [3] concerns the target T2, Prostaglandin G/H synthase 1 (Homo sapiens, UniProt P23219). Put plainly: Inhibition of Prostaglandin G/H synthase 1 activity in U937 microsomal assay. The assay is classed as microsomes, Microsome.
For assay [4], the target named is T2, Prostaglandin G/H synthase 1. Kind of assay: Inhibition of purified recombinant human Prostaglandin G/H synthase 1.
Assay [5] concerns Rattus norvegicus. Put plainly: In vivo antiinflammatory activity expressed as 50% effective dose was evaluated at 5 hr post dosing in rat pyresis model. The assay is classed as functional.
The test system of assay [6] is Rattus norvegicus. Put plainly: In vivo antiinflammatory activity expressed as 30% effective dose was evaluated in rat paw edema assay. The assay is classed as functional.
Assay [7] relates to Rattus norvegicus. Kind of assay: In vivo antiinflammatory activity expressed as percent inhibition after administration of 3 mg/kg was evaluated in rat paw edema assay. In kind it is functional.
Assay [8] concerns Rattus norvegicus. Kind of assay: In vivo antiinflammatory activity expressed as 50% effective dose was evaluated in rat paw edema assay. The assay is classed as functional.

Each structure is given as a SMILES string.

T2 sequence (P23219 whole entry): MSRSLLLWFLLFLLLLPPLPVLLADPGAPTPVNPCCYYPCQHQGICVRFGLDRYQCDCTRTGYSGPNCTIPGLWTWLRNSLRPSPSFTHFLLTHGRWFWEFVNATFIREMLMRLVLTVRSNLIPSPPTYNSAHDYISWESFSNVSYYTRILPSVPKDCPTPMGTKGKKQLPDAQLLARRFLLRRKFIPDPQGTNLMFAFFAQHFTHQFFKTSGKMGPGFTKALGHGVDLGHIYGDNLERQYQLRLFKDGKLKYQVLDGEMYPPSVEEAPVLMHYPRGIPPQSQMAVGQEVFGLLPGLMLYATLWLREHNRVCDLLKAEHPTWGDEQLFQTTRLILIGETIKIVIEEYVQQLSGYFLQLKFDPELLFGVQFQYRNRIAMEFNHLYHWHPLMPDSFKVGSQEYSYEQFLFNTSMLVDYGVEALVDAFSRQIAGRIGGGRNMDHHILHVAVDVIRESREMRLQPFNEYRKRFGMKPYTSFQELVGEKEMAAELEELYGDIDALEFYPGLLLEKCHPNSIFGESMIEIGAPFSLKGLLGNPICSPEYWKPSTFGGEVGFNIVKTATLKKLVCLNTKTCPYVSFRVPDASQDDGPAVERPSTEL

For the compound `CS(=O)(=O)Nc1cc2c(cc1Sc1nccs1)C(=O)OC2`, the IC50 was 0.61 µM in assay [1], 0.027 µM in assay [2], 1.3 µM in assay [3] and > 100 µM in assay [4].
As to `CS(=O)(=O)Nc1cc2c(cc1Sc1ccc(F)cc1F)C(=O)CC2`, the IC50 in assay [3] was 1.6 µM; in assay [4], > 100 µM.
With `CS(=O)(=O)Nc1cc2c(cc1Sc1nccs1)C(=O)CC2`, the 50% inhibitory concentration (IC50) is 0.48 µM in assay [1], 0.32 µM in assay [2], 13 µM in assay [3] and > 100 µM in assay [4].
On to `CCc1csc(Sc2cc3c(cc2NS(C)(=O)=O)CCC3=O)n1`, for which the IC50 in assay [1] is 0.28 µM; in assay [2], 0.049 µM; in assay [3], 14 µM; in assay [4], ~100 µM. Moreover, the ED50 with Rattus norvegicus [5] was determined as 8.1 mg/kg. Further, the ED30 with Rattus norvegicus [6] was 0.3 mg/kg. Moreover, the inhibition in vivo at 3 mg/kg with Rattus norvegicus [7] was determined as 43%.
Regarding `CS(=O)(=O)Nc1cc2c(cc1Sc1ncc(Cl)cc1Cl)C(=O)CC2`, the IC50 in assay [1] is 0.36 µM; in assay [2], 0.12 µM; in assay [3] it was 4.9 µM; in assay [4] it was > 100 µM. The ED30 in the assay on Rattus norvegicus [6] was 0.7 mg/kg.
As for `CS(=O)(=O)Nc1cc2c(cc1Sc1ccccn1)C(=O)CC2`, the IC50 in assay [1] is 0.81 µM; in assay [2] it was 0.5 µM; in assay [3] it was > 30 µM; in assay [4] it was > 100 µM.
Taken in the same sequence, the figures for `Cc1ccc(Sc2cc3c(cc2NS(C)(=O)=O)CCC3=O)nc1` were 1 µM, 0.64 µM, > 100 µM and > 100 µM.
In the case of `Cc1csc(Sc2cc3c(cc2NS(C)(=O)=O)CCC3=O)n1`, the IC50 was 0.38 µM in assay [1], 0.03 µM in assay [2], 0.62 µM in assay [3] and > 100 µM in assay [4].
For the compound `Cc1nc(Sc2cc3c(cc2NS(C)(=O)=O)CCC3=O)sc1C`, the IC50 in assay [1] was 1.7 µM; in assay [2] it was > 1.8 µM; in assay [3] it was > 100 µM; in assay [4], > 100 µM.
Consider `C=Cc1csc(Sc2cc3c(cc2NS(C)(=O)=O)COC3=O)n1`, for which the IC50 in assay [1] was 0.31 µM; in assay [2], 0.14 µM; in assay [3], 12 µM; in assay [4], > 100 µM.
Taken in the same sequence, the figures for `CS(=O)(=O)Nc1cc2c(cc1Sc1ncccc1Cl)C(=O)CC2` were 0.52 µM, 0.22 µM, 6.1 µM and > 100 µM.
Consider `CSc1csc(Sc2cc3c(cc2NS(C)(=O)=O)COC3=O)n1`, for which the IC50 is 0.29 µM in assay [1], 11 µM in assay [2], 9.3 µM in assay [3] and > 100 µM in assay [4].
The corresponding values for `Cc1cnc(Sc2cc3c(cc2NS(C)(=O)=O)CCC3=O)s1` are 1.5 µM, 0.87 µM, > 100 µM and > 100 µM.
As for `CCc1csc(Sc2cc3c(cc2NS(C)(=O)=O)COC3=O)n1`, the IC50 is 1 µM in assay [1], 0.013 µM in assay [2], 6.3 µM in assay [3] and > 100 µM in assay [4]. For the same compound, the figures for the ED50 in the assay on Rattus norvegicus [5] and in the assay on Rattus norvegicus [8] were 2.7 mg/kg and 0.93 mg/kg, respectively. In addition, in the assay on Rattus norvegicus [6], the ED30 is 0.16 mg/kg. This compound had an inhibition in vivo at 3 mg/kg with Rattus norvegicus [7] of 65%.
In the case of `Cc1csc(Sc2cc3c(cc2NS(C)(=O)=O)COC3=O)n1`, the IC50 in assay [1] is 6.9 µM; in assay [2] it was 0.043 µM; in assay [3] it was 0.35 µM; in assay [4], > 100 µM.

One may read the IC50 as the midpoint of a concentration-inhibition curve. What is called ED50 is the dose that gives a 50% effect, or the effect in half of the subjects. By inhibition in vivo is commonly meant the percentage by which the read-out fell short of the control. A lower inhibition in vivo goes with little suppression.
